Measured values: the supplement of paper PMC10307832

How the values were obtained:
Experiment in all cases: relative viability (nuclei count vs DMSO), 5 days (fraction); higher = more cells survive
Dinaciclib + OSI-027 = compound: CCc1cnn2c(NCc3ccc[n+]([O-])c3)cc(N3CCCC[C@H]3CCO)nc12 [Dinaciclib] + COc1cccc2cc(-c3nc([C@H]4CC[C@H](C(=O)O)CC4)n4ncnc(N)c34)[nH]c12 [OSI-027] (partner 0.5 µM)
Outline: (§1)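 Lung cancer cell lines in 1536-well plates were dosed by pin tool the day after seeding, either with one drug alone or with a fixed anchor-drug dose plus five library-drug doses (not always all listed) in √10 steps. After 5 days, cells were fixed and their nuclei stained in one step (final 0.05% Triton X-100, 1% formaldehyde, 1 ug/ml Hoechst), then counted on 4× images. Relative viability is the nuclei count in treated wells divided by that in vehicle wells. Values are medians of duplicate plates.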

Dinaciclib + Trametinib = compound: CCc1cnn2c(NCc3ccc[n+]([O-])c3)cc(N3CCCC[C@H]3CCO)nc12 [Dinaciclib] + CC(=O)Nc1cccc(-n2c(=O)n(C3CC3)c(=O)c3c(Nc4ccc(I)cc4F)n(C)c(=O)c(C)c32)c1 [Trametinib] (partner 0.02 µM)
Outline: as §1

Dinaciclib + Luminespib = compound: CCc1cnn2c(NCc3ccc[n+]([O-])c3)cc(N3CCCC[C@H]3CCO)nc12 [Dinaciclib] + CCNC(=O)c1noc(-c2cc(C(C)C)c(O)cc2O)c1-c1ccc(CN2CCOCC2)cc1 [Luminespib] (partner 0.01 µM)
Outline: as §1

Dinaciclib + Vorinostat = compound: CCc1cnn2c(NCc3ccc[n+]([O-])c3)cc(N3CCCC[C@H]3CCO)nc12 [Dinaciclib] + O=C(CCCCCCC(=O)Nc1ccccc1)NO [Vorinostat] (partner 1 µM)
Outline: as §1

Dinaciclib + AZD7762 = compound: CCc1cnn2c(NCc3ccc[n+]([O-])c3)cc(N3CCCC[C@H]3CCO)nc12 [Dinaciclib] + NC(=O)Nc1cc(-c2cccc(F)c2)sc1C(=O)N[C@H]1CCCNC1 [AZD7762] (partner 0.2 µM)
Outline: as §1

Cell Line | relative viability (Dinaciclib + OSI-027; first compound 0.009487 µM) | relative viability (Dinaciclib + OSI-027; first compound 0.03 µM) | relative viability (Dinaciclib + OSI-027; first compound 0.09487 µM) | relative viability (Dinaciclib + OSI-027; first compound 0.3 µM) | relative viability (Dinaciclib + Trametinib; first compound 0.009487 µM) | relative viability (Dinaciclib + Trametinib; first compound 0.03 µM) | relative viability (Dinaciclib + Trametinib; first compound 0.09487 µM) | relative viability (Dinaciclib + Trametinib; first compound 0.3 µM) | relative viability (Dinaciclib + Luminespib; first compound 0.009487 µM) | relative viability (Dinaciclib + Luminespib; first compound 0.03 µM) | relative viability (Dinaciclib + Luminespib; first compound 0.09487 µM) | relative viability (Dinaciclib + Luminespib; first compound 0.3 µM) | relative viability (Dinaciclib + Vorinostat; first compound 0.009487 µM) | relative viability (Dinaciclib + Vorinostat; first compound 0.03 µM) | relative viability (Dinaciclib + Vorinostat; first compound 0.09487 µM) | relative viability (Dinaciclib + Vorinostat; first compound 0.3 µM) | relative viability (Dinaciclib + AZD7762; first compound 0.009487 µM) | relative viability (Dinaciclib + AZD7762; first compound 0.03 µM) | relative viability (Dinaciclib + AZD7762; first compound 0.09487 µM) | relative viability (Dinaciclib + AZD7762; first compound 0.3 µM)
EKVX | 0.694 | 0.59 | 0.204 | 0.105 | 0.333 | 0.219 | 0.11 | 0.108 | 0.858 | 0.705 | 0.137 | 0.101 | 0.612 | 0.472 | 0.167 | 0.226 | 0.756 | 0.436 | 0.127 | 0.101
EMC-BAC-2 | 0.353 | 0.188 | 0.207 | 0.217 | 0.842 | 0.21 | 0.219 | 0.22 | 1.15 | 0.382 | 0.145 | 0.16 | 0.36 | 0.166 | 0.152 | 0.143 | 0.935 | 0.657 | 0.22 | 0.237
EPLC-272H | 0.288 | 0.152 | 0.0567 | 0.0523 | 0.223 | 0.0654 | 0.0408 | 0.056 | 0.2 | 0.0547 | 0.042 | 0.0355 | 0.242 | 0.0369 | 0.0282 | 0.0401 | 0.444 | 0.0986 | 0.0404 | 0.0369
H3255 | 0.593 | 0.394 | 0.279 | 0.226 | 0.629 | 0.27 | 0.194 | 0.201 | 0.813 | 0.72 | 0.204 | 0.18 | 0.705 | 0.51 | 0.211 | 0.205 | 1.04 | 0.62 | 0.209 | 0.208
HARA | 0.532 | 0.064 | 0.04 | 0.0478 | 0.519 | 0.213 | 0.114 | 0.111 | 0.367 | 0.0789 | 0.0403 | 0.0571 | 0.527 | 0.331 | 0.0816 | 0.0937 | 0.349 | 0.116 | 0.127 | 0.123
HCC-15 | 0.596 | 0.113 | 0.0869 | 0.107 | 0.329 | 0.248 | 0.116 | 0.112 | 0.122 | 0.1 | 0.102 | 0.141 | 0.715 | 0.355 | 0.121 | 0.124 | 1.18 | 0.88 | 0.113 | 0.0634
HCC-44 | 0.286 | 0.208 | 0.159 | 0.17 | 1.13 | 0.846 | 0.343 | 0.339 | 0.61 | 0.2 | 0.179 | 0.17 | 1.24 | 1.04 | 0.368 | 0.319 | 0.999 | 1.05 | 0.351 | 0.327
HCC-78 | 0.349 | 0.347 | 0.205 | 0.193 | 0.631 | 0.402 | 0.229 | 0.183 | – | – | – | – | 0.457 | 0.372 | 0.229 | 0.186 | 0.941 | 0.637 | 0.226 | 0.209
